Key:
Type in all cases: functional, cell-based
[1] = biological target: T1, ATP-dependent translocase ABCB1 (Homo sapiens, UniProt P08183); assay: TP_TRANSPORTER: transepithelial transport in L-MDR1 cells; conditions: pig
[2] = biological target: T1, ATP-dependent translocase ABCB1; assay: TP_TRANSPORTER: transepithelial transport of vinblastine in the presence of Simvastatin acid at 50uM in L-MDR1 cells; conditions: pig, l-mdr1, 50 µM
[3] = biological target: T1, ATP-dependent translocase ABCB1; assay: TP_TRANSPORTER: transepithelial transport of vinblastine in the presence of Atrovastatin at 50uM in KBV1 cells; conditions: kbv1, 50 µM

T1 sequence (P08183 whole entry): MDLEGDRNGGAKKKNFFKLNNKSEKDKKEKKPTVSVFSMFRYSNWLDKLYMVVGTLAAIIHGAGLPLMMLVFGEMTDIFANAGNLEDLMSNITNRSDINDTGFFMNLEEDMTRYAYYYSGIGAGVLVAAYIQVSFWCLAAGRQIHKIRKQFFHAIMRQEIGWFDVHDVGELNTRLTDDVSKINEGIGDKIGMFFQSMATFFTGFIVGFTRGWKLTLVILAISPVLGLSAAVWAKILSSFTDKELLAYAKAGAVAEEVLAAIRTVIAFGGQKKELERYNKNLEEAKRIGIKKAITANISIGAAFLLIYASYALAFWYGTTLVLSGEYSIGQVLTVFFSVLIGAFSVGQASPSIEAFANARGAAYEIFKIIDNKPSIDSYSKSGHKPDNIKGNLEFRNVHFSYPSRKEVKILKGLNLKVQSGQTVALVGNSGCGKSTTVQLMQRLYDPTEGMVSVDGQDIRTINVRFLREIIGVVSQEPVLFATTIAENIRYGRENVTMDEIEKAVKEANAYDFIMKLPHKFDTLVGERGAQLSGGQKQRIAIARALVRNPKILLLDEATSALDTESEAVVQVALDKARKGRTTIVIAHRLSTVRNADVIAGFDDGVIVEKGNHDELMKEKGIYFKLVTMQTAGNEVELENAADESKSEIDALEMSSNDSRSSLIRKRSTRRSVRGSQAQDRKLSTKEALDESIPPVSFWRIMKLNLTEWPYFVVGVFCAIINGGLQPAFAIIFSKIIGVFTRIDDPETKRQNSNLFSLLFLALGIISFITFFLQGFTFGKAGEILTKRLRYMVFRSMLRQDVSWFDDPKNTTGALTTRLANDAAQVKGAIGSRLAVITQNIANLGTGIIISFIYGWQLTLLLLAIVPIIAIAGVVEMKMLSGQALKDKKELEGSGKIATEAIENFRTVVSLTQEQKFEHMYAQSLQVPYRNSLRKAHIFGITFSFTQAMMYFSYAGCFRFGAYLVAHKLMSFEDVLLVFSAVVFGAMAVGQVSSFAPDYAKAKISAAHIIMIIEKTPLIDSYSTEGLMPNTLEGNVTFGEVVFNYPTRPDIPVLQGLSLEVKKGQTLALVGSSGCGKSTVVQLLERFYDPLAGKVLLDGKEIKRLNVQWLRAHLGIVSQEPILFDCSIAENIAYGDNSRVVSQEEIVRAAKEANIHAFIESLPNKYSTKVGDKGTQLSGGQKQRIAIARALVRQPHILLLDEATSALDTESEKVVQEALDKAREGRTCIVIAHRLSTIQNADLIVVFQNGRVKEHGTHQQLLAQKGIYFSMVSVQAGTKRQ

Compound	Activity [1]	Activity [2]	Activity [3]
CCC(C)(C)C(=O)O[C@H]1C[C@@H](C)C=C2C=C[C@H](C)[C@H](CC[C@@H](O)C[C@@H](O)CC(=O)O)[C@H]21 [TENIVASTATIN]	substrate [+]	is not an inhibitor [-]	–
CC(C)c1c(C(=O)Nc2ccccc2)c(-c2ccccc2)c(-c2ccc(F)cc2)n1CC[C@@H](O)C[C@@H](O)CC(=O)O [ATORVASTATIN]	substrate [+]	–	is not an inhibitor [-]

From ChEMBL document CHEMBL2074343 (Pharm Res, 2004)
